# Target: Carbonic anhydrase 1 (Homo sapiens, UniProt P00915)
# Sequence (P00915 whole entry): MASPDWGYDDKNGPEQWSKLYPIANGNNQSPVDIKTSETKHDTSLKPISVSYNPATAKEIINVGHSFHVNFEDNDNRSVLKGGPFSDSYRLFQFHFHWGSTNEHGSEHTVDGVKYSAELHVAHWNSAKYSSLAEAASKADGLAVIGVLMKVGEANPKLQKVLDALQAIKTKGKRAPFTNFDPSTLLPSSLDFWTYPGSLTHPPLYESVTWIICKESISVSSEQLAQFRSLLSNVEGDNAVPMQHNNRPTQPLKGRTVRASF
# Description: Inhibitory activity against Carbonic anhydrase I
row,SMILES,Ki [nM]
1,NNc1ccc(S(N)(=O)=O)cc1,3900

# Target: Carbonic anhydrase 9 (Homo sapiens, UniProt Q16790)
# Description: Inhibitory activity against Carbonic anhydrase IX
row,SMILES,Ki [nM]
1,COC(=O)c1ccccc1S(N)(=O)=O,680
2,NS(=O)(=O)c1ccccc1C(=O)NNC(=O)NS(=O)(=O)c1ccc(F)cc1,64
3,Cc1ccccc1S(=O)(=O)NC(=O)NNC(=O)c1ccc(S(N)(=O)=O)cc1,32
4,Cc1ccc(S(=O)(=O)NC(=O)NNC(=O)c2ccccc2S(N)(=O)=O)cc1,70
5,NNc1ccc(S(N)(=O)=O)cc1F,136
6,NNc1ccc(S(N)(=O)=O)cc1Cl,149
7,NS(=O)(=O)c1ccc(C(=O)NNC(=O)Nc2ccc(Oc3ccccc3)cc2)cc1,7.9
8,NS(=O)(=O)c1ccc(C(=O)NNC(=O)NC2c3ccccc3-c3ccccc32)cc1,13
9,NS(=O)(=O)c1ccccc1C(=O)NNC(=O)NS(=O)(=O)c1ccccc1,76
10,Cc1ccccc1S(=O)(=O)NC(=O)NNC(=O)c1ccccc1S(N)(=O)=O,83
11,NS(=O)(=O)c1ccccc1C(=O)NNC(=O)NS(=O)(=O)c1ccc(Cl)cc1,72
12,NS(=O)(=O)c1ccc(C(=O)NNC(=O)NS(=O)(=O)c2ccccc2)cc1,35
13,NNC(=O)c1ccccc1S(N)(=O)=O,547
14,NS(=O)(=O)c1ccc(C(=O)NNC(=O)Nc2ccc(-c3ccccc3)cc2)cc1,5.4
15,NS(=O)(=O)c1ccc(C(=O)O)cc1 [CARZENIDE],346

# Second part, the compound after the results:
row,Ki [nM],SMILES
1,5.8,Cc1ccc(S(=O)(=O)NC(=O)NNC(=O)c2ccc(S(N)(=O)=O)cc2)cc1
2,24,NS(=O)(=O)c1ccc(C(=O)NNC(=O)Nc2ccc(C34CC5CC(CC(C5)C3)C4)cc2)cc1
3,7,NS(=O)(=O)c1ccc(C(=O)NNC(=O)Nc2ccc(Cc3ccccc3)cc2)cc1
4,5.4,NS(=O)(=O)c1ccc(C(=O)NNC(=O)NS(=O)(=O)c2ccc(Cl)cc2)cc1
5,7.9,NS(=O)(=O)c1ccc(C(=O)NNC(=O)Nc2ccc(Cl)c(Cl)c2)cc1
6,6.2,NS(=O)(=O)c1ccc(C(=O)NNC(=O)NS(=O)(=O)c2ccc(F)cc2)cc1
7,8.3,CC(=O)c1ccc(NC(=O)NNC(=O)c2ccc(S(N)(=O)=O)cc2)cc1
8,8.6,NS(=O)(=O)c1ccc(C(=O)NNC(=O)Nc2ccc(Br)cc2)cc1

# — ChEMBL document CHEMBL1145204, “Carbonic anhydrase inhibitors: synthesis and inhibition of cytosolic/membrane-associated carbonic anhydrase isozymes I, II, and IX with sulfonamides incorporating hydrazino moieties” (J Med Chem, 2005)
